Drawing on patent US20040181075A1, “Process of making chalcone derivatives” (priority 2002, published 2004), this text covers melting point for two compounds.

For orientation: melting point means the temperature, or range, at which the solid turns liquid.

SMILES strings stand for the structures.

The compound `COc1cc(OC)c(-c2cc3ccccc3s2)cc1/C=C\C(=O)c1ccc(C(=O)O)cc1` [Example 66, 4-[(2Z)-3-(5-benzo[b]thien-2-yl-2,4-dimethoxyphenyl)-1-oxo-2-propenyl]-benzoic acid] showed a melting point of 176 to 178 °C.
Consider `COc1cc(OC)c(-c2cc3ccccc3s2)cc1/C=C/C(=O)c1ccc(C(=O)O)cc1` [Example 3, 4-[(2E)-3-(5-benzo[b]thien-2-yl-2,4-dimethoxyphenyl)-1-oxo-2-propenyl]-benzoic acid], for which the melting point is 231 to 232 °C (dec.).
